In general, IC50 refers to the midpoint of a concentration-inhibition curve.

Where a name gives a salt, the structure may show the parent alone.

Here are results for 22 compounds from US20230365563A1, “QUINAZOLINE COMPOUND AND APPLICATION THEREOF” (SHANGHAI PHARMACEUTICALS HOLDING CO., LTD., priority 2020, published 2023).

T1 sequence (P01116 1-188 isoform P01116-2 G12D): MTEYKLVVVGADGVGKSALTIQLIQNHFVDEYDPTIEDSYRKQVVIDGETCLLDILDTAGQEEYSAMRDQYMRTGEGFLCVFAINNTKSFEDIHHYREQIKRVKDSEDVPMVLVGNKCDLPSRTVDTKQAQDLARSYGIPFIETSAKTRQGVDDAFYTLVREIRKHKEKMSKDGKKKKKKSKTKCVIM

This test concerns the target T1, KRAS-G12D and SOS1 (Homo sapiens, UniProt P01116, G12D).
T1 construct: purchased
Kind of test: Inhibition of KRAS-G12D/SOS1 binding (Cisbio binding kit, 665/615 ratio), Effect Embodiment A. To be noted: read-out: GTP-KRAS-G12D:SOS1 IC50. The essentials: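 Test compounds were serially diluted 3-fold from the storage solution over 11 points and dispensed in duplicate wells at 1% final DMSO.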
With `CN(C)C1CN(c2nc(NCC(=N)N)c3cc(Cl)c(-c4cc(O)cc5ccccc45)c(F)c3n2)C1` (single isomer, unassigned) [Compound 76, (S or R)-2-((6-chloro-2-(3-(dimethylamino)azetidin-1-yl)-8-fluoro-7-(3-hydroxynaphthalen-1-yl)quinazolin-4-yl)amino)acetimidamide diformate], the IC50 worked out at 8960 nM.
Consider `CC(=O)NCCN(C)c1nc(N2CC(N(C)C)C2)nc2c(F)c(-c3cc(O)cc4ccccc34)c(Cl)cc12` (single isomer, unassigned) [Compound 84, (S or R)—N-(2-((6-chloro-2-(3-(dimethylamino)azetidin-1-yl)-8-fluoro-7-(3-hydroxynaphthalen-1-yl)quinazolin-4-yl)(methyl)amino)ethyl)acetamide], for which the IC50 turned out to be 3050 nM.
In the case of `CN(C)C1CN(c2nc(N3CC4CCC(C3)N4C(=N)N)c3cc(Cl)c(-c4cc(O)cc5ccccc45)c(F)c3n2)C1` (single isomer, unassigned) [Compound 85, (1R,5S)-3-((S or R)-6-chloro-2-(3-(dimethylamino)azetidin-1-yl)-8-fluoro-7-(3-hydroxynaphthalen-1-yl)quinazolin-4-yl)-3,8-diazabicyclo[3.2.1]octane-8-carboximidamide diformate], the IC50 was found to be 4790 nM.
On to `CN(C)C1CN(c2nc(N3CC4CCC(C3)N4C)c3cc(Cl)c(-c4cc(O)cc5ccccc45)c(F)c3n2)C1` (single isomer, unassigned) [Compound 86, 4-((S or R)-6-chloro-2-(3-(dimethylamino)azetidin-1-yl)-8-fluoro-4-((1R,5S)-8-methyl)-3,8-diazabicyclo[3.2.1]octan-3-yl)quinazolin-7-yl)naphthalen-2-ol], for which the IC50 worked out at 3570 nM.
`CC(=N)N1C2CCC1CN(c1nc(N3CC(N(C)C)C3)nc3c(F)c(-c4cc(O)cc5ccccc45)c(Cl)cc13)C2` (single isomer, unassigned) [Compound 87, 4-((S or R)-6-chloro-2-(3-(dimethylamino)azetidin-1-yl)-8-fluoro-4-((1R,5S)-8-(1-iminoethyl)-3,8-diazabicyclo[3.2.1]octan-3-yl)quinazolin-7-yl)naphthalen-2-ol trifluoroacetate]: the IC50 came out at 23300 nM.
Regarding `CN1CCC[C@H]1COc1nc(N2CC3CCC(C2)N3)c2cc(Cl)c(-c3cc(O)c(F)c4ccccc34)c(F)c2n1` (single isomer, unassigned) [Compound 89b, (R or S)-4-(4-((1R,5S)-3,8-diazabicyclo[3.2.1]octan-3-yl)-6-chloro-8-fluoro-2-(S)-1-methylpyrrolidin-2-yl)methoxy)quinazolin-7-yl)-1-fluoronaphthalen-2-ol hydrochloride], the IC50 stood at 5340 nM.
For `Cc1ccc2[nH]ncc2c1-c1c(Cl)cc2c(N3CC4CCC(C3)N4)nc(OC[C@@H]3CCCN3C)nc2c1F` (single isomer, unassigned) [Compound 90a, 4-((1R,5S)-3,8-diazabicyclo[3.2.1]octan-3-yl)-6-chloro-8-fluoro-7-((R or S)-5-methyl-1H-indazol-4-yl)-2-((S)-1-methylpyrrolidin-2-yl)methoxy)quinazoline hydrochloride], the half-maximal inhibitory concentration (IC50) was found to be 263 nM.
On to `C[C@H]1CCCN1CCCOc1nc(N2CC3CCC(C2)N3)c2cc(Cl)c(-c3cc(O)cc4ccccc34)c(F)c2n1` (single isomer, unassigned) [Compound 108b, 4-((S or R)-4-((1R,5S)-3,8-diazabicyclo[3.2.1]octan-3-yl)-6-chloro-8-fluoro-2-(3-((S)-2-methylpyrrolidin-1-yl)propoxy)quinazolin-7-yl)naphthalen-2-ol dihydrochloride], for which the IC50 was 108 nM.
Regarding `CN1CCC1CCOc1nc(N2CC3CCC(C2)N3)c2cc(Cl)c(-c3cc(O)cc4ccccc34)c(F)c2n1` (single isomer, unassigned) [Compound 112b, 4-((S or R)-4-((1R,5S)-3,8-diazabicyclo[3.2.1]octan-3-yl)-6-chloro-8-fluoro-2-(2-((R or S)-1-methylazetidin-2-yl)ethoxy)quinazolin-7-yl)naphthalen-2-ol carboxylate], the IC50 was 120 nM.
As for `Oc1cc(-c2c(Cl)cc3c(N4CC5CCC(C4)N5)nc(OCCN4CCOCC4)nc3c2F)c2ccccc2c1` (single isomer, unassigned) [Compound 121, 4-((S or R)-4-((1R,5S)-3,8-diazabicyclo[3.2.1]octan-3-yl)-6-chloro-8-fluoro-2-(2-(morpholinylethoxy)quinazolin-7-yl)naphthalen-2-oldihydrochloride], the IC50 is 147 nM.
Take `CN1CCOC[C@H]1COc1nc(N2CC3CCC(C2)N3)c2cc(Cl)c(-c3cc(O)cc4ccccc34)c(F)c2n1` (single isomer, unassigned) [Compound 122, 4-((S or R)-4-((1R,5S)-3,8-diazabicyclo[3.2.1]octan-3-yl)-6-chloro-8-fluoro-2-((S)-4-methylmorpholin-3-yl)methoxy)quinazolin-7-yl)naphthalen-2-ol dihydrochloride]: the IC50 amounted to 219 nM.
With `CC(C)(CCOc1nc(N2CC3CCC(C2)N3)c2cc(Cl)c(-c3cc(O)cc4ccccc34)c(F)c2n1)N1CCCC1` (single isomer, unassigned) [Compound 123, 4-((S or R)-4-((1R,5S)-3,8-diazabicyclo[3.2.1]octan-3-yl)-6-chloro-8-fluoro-2-(3-methyl-3-(pyrrolidin-1-yl)butoxy)quinazolin-7-yl)naphthalen-2-ol dihydrochloride] the figure was 106 nM.
For the compound `CCCN(C)CCOc1nc(N2C[C@H]3CC[C@@H](C2)N3)c2cc(Cl)c(-c3cc(O)cc4ccccc34)c(F)c2n1` (single isomer, unassigned) [Compound 126, (S or R)-4-(4-((1R,5S)-3,8-diazabicyclo[3.2.1]octan-3-yl)-6-chloro-8-fluoro-2-(2-(methyl(propyl)amino)ethoxy)quinazolin-7-yl)naphthalen-2-ol dihydrochloride], the IC50 is 134 nM.
With `CN(C)C1CN(c2nc(C3(C(N)=O)CN(C(=N)N)C3)c3cc(Cl)c(-c4cc(O)cc5ccccc45)c(F)c3n2)C1` (single isomer, unassigned) [Compound 145, (R or S)-1-Carbamimidoyl-3-(6-chloro-2-(3-(dimethylamino)azetidin-1-yl)-8-fluoro-7-(3-hydroxynaphthalen-1-yl)quinazolin-4-yl)azetidin-3-carboxamide ditrifluoroacetate] the figure was 5940 nM; with `CN(C)C1CN(c2nc(C3CN(C(=N)N)C3)c3cc(Cl)c(-c4cc(O)cc5ccccc45)c(F)c3n2)C1` (single isomer, unassigned) [Compound 146], 6930 nM; with `CN(C)CCCSc1nc(N2C[C@H]3CC[C@@H](C2)N3)c2cc(Cl)c(-c3cc(O)cc4ccccc34)c(F)c2n1` (single isomer, unassigned) [Compound 147, (S or R) 4-(4-((1R,5S)-3,8-diazabicyclo[3.2.1]octan-3-yl)-6-chloro-2-((3-(dimethylamino)propyl)thio)-8-fluoroquinazolin-7-yl)naphthalen-2-ol dihydrochloride], 605 nM.
For `CN1CCC[C@H]1COc1nc(N2C3CCC2C2CCC3N2)c2cc(Cl)c(-c3cc(O)cc4ccccc34)c(F)c2n1` (single isomer, unassigned) [Compound 152a, 4-((S or R)-6-chloro-8-fluoro-2-((S)-1-methylpyrrolidin-2-yl)methoxy)-4-((1R,2R,5S,6S)-9,10-diazatricyclo[4.2.1.1^2,5]decan-9-yl)quinazolin-7-yl)naphthalen-2-ol dihydrochloride], the IC50 came out at 1050 nM.
`CN1CCC[C@H]1COc1nc(N2CCN[C@@H](CC#N)C2)c2cc(Cl)c(-c3cc(O)cc4ccccc34)c(F)c2n1` (single isomer, unassigned) [Compound 153a, 2-((S)-4-((S or R)-6-chloro-8-fluoro-7-(3-hydroxynaphthalen-1-yl)-2-((S)-1-methylpyrrolidin-2-yl)methoxy)quinazolin-4-yl)piperazin-2-yl)acetonitrile]: the IC50 is 965 nM.
With `CN(C)CCCCc1nc(N2CC3CCC(C2)N3)c2cc(Cl)c(-c3cc(O)cc4ccccc34)c(F)c2n1` (single isomer, unassigned) [Compound 154a, 4-((S or R)-4-((1R,5S)-3,8-diazabicyclo[3.2.1]octan-3-yl)-6-chloro-2-(4-(dimethylamino)butyl)-8-fluoroquinazolin-7-yl)naphthalen-2-ol dihydrochloride] the figure was 204 nM; with `CN1CCC[C@H]1COc1nc(N2CC3CCC(C2)N3C(=O)CN)c2cc(Cl)c(-c3cc(O)cc4ccccc34)c(F)c2n1` (single isomer, unassigned) [Compound 156, 2-Amino-1-((1R,5S)-3-((S or R)-6-chloro-8-fluoro-7-(3-hydroxynaphthalen-1-yl)-2-((S)-1-methylpyrrolidin-2-yl)methoxy)quinazin-4-yl)-3,8-diazacyclo[3.2.1]octan-8-yl)ethan-1-one dihydrochloride], 621 nM; with `CN1CCC[C@H]1COc1nc(N2CCN(C(=O)CCN)[C@@H](CC#N)C2)c2cc(Cl)c(-c3cc(O)cc4ccccc34)c(F)c2n1` (single isomer, unassigned) [Compound 157, 2-((S)-1-(3-aminopropionyl)-4-((S or R)-6-chloro-8-fluoro-7-(3-hydroxynaphthalen-1-yl)-2-((S)-1-methylpyrrolidine-2-yl)methoxy)quinazolin-4-yl)-piperazin-2-yl)acetonitrile ditrifluoroacetate], 316 nM.
In the case of `CN1CCC[C@H]1COc1nc(N2CC3CCC(C2)N3)c2cc(F)c(-c3cc(O)cc4ccccc34)c(F)c2n1` (single isomer, unassigned) [Compound 160b, (S or R) 4-(4-((1R,5S)-3,8-diazabicyclo[3.2.1]octan-3-yl)-6,8-difluoro-2-((S)-1-methylpyrrolidin-2-yl)methoxy)quinazolin-7-yl)naphthalen-2-ol dihydrochloride], the IC50 was determined as 117 nM.
